One assay relates to MDA-MB-231. The assay can be described thus: Cytotoxicity against human MDA-MB-231 cells assessed as growth inhibition after 5 days by CellTitre-glo assay. It is filed as functional, cell-based. Particulars: MDA-MB-231, 120 h.
Assay [1] addresses Tyrosine-protein kinase JAK2 (Homo sapiens, UniProt O60674). Nature of the assay: Inhibition of JAK2 (unknown origin).
A further assay addresses T1, Aurora kinase A (Homo sapiens, UniProt O14965).
T1 sequence (O14965 whole entry): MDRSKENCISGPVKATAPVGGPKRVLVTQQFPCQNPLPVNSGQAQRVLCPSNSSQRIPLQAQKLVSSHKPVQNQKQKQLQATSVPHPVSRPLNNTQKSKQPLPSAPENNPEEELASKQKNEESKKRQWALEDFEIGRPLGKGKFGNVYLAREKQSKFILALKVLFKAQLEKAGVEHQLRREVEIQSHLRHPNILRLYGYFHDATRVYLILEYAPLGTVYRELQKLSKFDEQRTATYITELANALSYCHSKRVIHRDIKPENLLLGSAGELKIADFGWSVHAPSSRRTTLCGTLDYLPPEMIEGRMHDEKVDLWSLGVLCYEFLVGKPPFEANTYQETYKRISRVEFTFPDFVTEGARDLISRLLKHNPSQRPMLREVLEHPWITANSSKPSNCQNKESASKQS
The assay can be described thus: Inhibition of aurora A (unknown origin).

As a reminder, the EC50 is the concentration at which the effect is half-maximal. For orientation: IC50 means the concentration at which inhibition is half-maximal.

Chain of Tyrosine-protein kinase JAK2 (O60674 whole entry): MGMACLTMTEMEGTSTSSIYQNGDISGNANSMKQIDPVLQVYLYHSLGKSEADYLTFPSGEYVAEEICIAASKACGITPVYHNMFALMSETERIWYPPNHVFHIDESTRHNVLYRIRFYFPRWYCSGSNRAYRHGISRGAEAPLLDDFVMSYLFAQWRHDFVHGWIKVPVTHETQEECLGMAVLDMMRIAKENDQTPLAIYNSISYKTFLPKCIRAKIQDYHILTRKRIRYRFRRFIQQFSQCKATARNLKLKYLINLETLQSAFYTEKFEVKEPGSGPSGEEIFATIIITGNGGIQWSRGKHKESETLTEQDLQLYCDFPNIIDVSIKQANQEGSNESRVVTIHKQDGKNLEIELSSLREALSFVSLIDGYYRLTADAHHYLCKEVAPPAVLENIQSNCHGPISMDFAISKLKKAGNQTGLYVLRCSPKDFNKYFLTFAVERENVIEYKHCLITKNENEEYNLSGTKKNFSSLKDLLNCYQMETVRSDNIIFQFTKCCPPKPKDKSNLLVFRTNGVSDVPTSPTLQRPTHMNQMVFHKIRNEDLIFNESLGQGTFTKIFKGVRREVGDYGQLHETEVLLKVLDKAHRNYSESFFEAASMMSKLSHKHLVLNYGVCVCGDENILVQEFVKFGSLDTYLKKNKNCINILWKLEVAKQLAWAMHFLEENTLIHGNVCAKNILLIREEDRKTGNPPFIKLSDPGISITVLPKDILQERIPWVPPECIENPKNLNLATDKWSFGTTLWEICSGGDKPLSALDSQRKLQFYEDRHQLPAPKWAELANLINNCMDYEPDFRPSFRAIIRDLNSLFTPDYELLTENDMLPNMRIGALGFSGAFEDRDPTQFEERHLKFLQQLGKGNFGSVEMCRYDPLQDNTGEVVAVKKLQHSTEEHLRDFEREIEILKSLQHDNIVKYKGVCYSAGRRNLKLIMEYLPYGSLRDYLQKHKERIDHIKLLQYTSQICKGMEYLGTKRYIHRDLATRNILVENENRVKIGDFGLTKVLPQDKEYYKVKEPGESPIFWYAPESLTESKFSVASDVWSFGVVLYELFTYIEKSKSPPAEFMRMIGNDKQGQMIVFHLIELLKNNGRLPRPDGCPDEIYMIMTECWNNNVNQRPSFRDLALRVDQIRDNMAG

With `COc1cc(Nc2nc3cccc(-c4cccc5[nH]cnc45)c3o2)cc(OC)c1OC`, the EC50 in the assay on MDA-MB-231 is 0.58 µM. Further, the IC50 in assay [1] stood at 0.46 µM; against Aurora kinase A it was 0.6 µM.

The record behind these values is ChEMBL document CHEMBL3297653, “2-Amino-7-substituted benzoxazole analogs as potent RSK2 inhibitors” (Bioorg Med Chem Lett, 2014).
